# Results: patent US20230045421A1 (priority 2018, published 2023)
# Test system: HBV rcDNA
# Experiment: HepDE19 assay with bDNA quantitation of HBV rcDNA
# Type: cell-based, hepatitis B virus
# Settings: HepDE19 assay, inhibition of formation of rcDNA; read-out: DE-19bDNA EC50
# Description: HepDE19 Assay with bDNA Quantitation of HBV rcDNA:
# HepDE19 cell culture system is a HepG2 (human hepatocarcinoma) derived cell line that supports HBV DNA replication and cccDNA formation in a tetracycline (Tet)-regulated manner and produces HBV rcDNA and a detectable reporter molecule dependent on the production and maintenance of cccDNA (Guo, et al., 2007, J. Virol. 81:12472-12484).
# HepDE19 (50,000 cells/well) were plated in 96-well collagen-coated tissue-culture treated microtiter plates in DMEM/F12 medium supplemented with 10% fetal bovine serum, 1% penicillin-streptomycin and 1 μg/mL tetracycline and incubated in a humidified incubator at 37° C. and 5% CO2 overnight. Next day, the cells were switched to fresh medium without tetracycline and incubated for 4 hours at 37° C. and 5% CO2. The cells were treated with fresh Tet-free medium with compounds at concentrations starting at 25 μM and a serial, […], 8-point, titration series in duplicate. The final DMSO concentration in the assay was 0.5%. The plates were incubated for 7 days in a humidified incubator at 37° C. and 5% CO2. Following a 7 day-incubation, the level of rcDNA present in the inhibitor-treated wells was measured using a Quantigene 2.0 bDNA assay kit (Affymetrix, Santa Clara, Calif.) with HBV specific custom probe set and manufacturers instructions. Concurrently, the effect of compounds on cell viability was assessed using replicate plates, plated at a density of 5,000 cells/well and incubated for 4 days, to determine the ATP content as a measure of cell viability using the cell-titer glo reagent (CTG; Promega Corporation, Madison, Wis.) as per manufacturer's instructions. The plates were read using a Victor luminescence plate reader (PerkinElmer Model 1420 Multilabel counter) and the relative luminescence units (RLU) data generated from each well was calculated as % inhibition of the untreated control wells and analyzed using XL-Fit module in Microsoft Excel to determine EC50 and EC90 (bDNA) and CC50 (CTG) values using a 4-parameter curve fitting algorithm.
row,Compound,EC50 [µM]
1,"CC(c1c[nH]c(=O)c2ccccc12)N(CC1CCCC1)C(=O)Nc1ccc(F)c(Cl)c1 (single isomer, unassigned) [Compound 192, 3-(3-Chloro-4-fluorophenyl)-1-(cyclopentylmethyl)-1-(1-(1-oxo-1,2-dihydroisoquinolin-4-yl)ethyl)urea]",0.42
2,COCCCN(C(=O)Nc1ccc(F)c(Cl)c1)C(C)c1c[nH]c(=O)c2ccccc12 (stereo not drawn) [Compound 79],2.1
3,"CC(c1c[nH]c(=O)c2ccccc12)N(CCCCO)C(=O)Nc1ccc(F)c(Cl)c1 (single isomer, unassigned) [Compound 150, 3-(3-Chloro-4-fluorophenyl)-1-(4-hydroxybutyl)-1-(1-(1-oxo-1,2-dihydroisoquinolin-4-yl)ethyl)urea]",0.01
4,"COc1ncc(C(C)N(C(=O)Nc2ccc(F)c(Cl)c2)C2CC2)c2ccccc12 (single isomer, unassigned) [Compound 56, 3-(3-Chloro-4-fluorophenyl)-1-cyclopropyl-1-(1-(1-methoxyisoquinolin-4-yl)ethyl)urea]",13
5,"Cc1[nH]c(=O)c2ccccc2c1C(C)N(C)C(=O)Nc1ccc(F)c(Cl)c1 (single isomer, unassigned) [Compound 223, 3-(3-Chloro-4-fluorophenyl)-1-methyl-1-(1-(3-methyl-1-oxo-1,2-dihydroisoquinolin-4-yl)ethyl)urea]",0.027
6,"COc1ncc(C(C)N(C(=O)Nc2ccc(F)c(Cl)c2)C2CC2)c2ccccc12 (single isomer, unassigned) [Compound 57, 3-(3-Chloro-4-fluorophenyl)-1-cyclopropyl-1-(1-(1-methoxyisoquinolin-4-yl)ethyl)urea]",0.24
7,"CC(c1c[nH]c(=O)c2ccccc12)N(CC1CCN(S(C)(=O)=O)CC1)C(=O)Nc1ccc(F)c(Cl)c1 (single isomer, unassigned) [Compound 203, 3-(3-Chloro-4-fluorophenyl)-1-((1-(methylsulfonyl)piperidin-4-yl)methyl)-1-(1-(1-oxo-1,2-dihydroisoquinolin-4-yl)ethyl)urea]",10.5
8,"CC(c1c[nH]c(=O)c2ccccc12)N(CC(C)(C)CO)C(=O)Nc1ccc(F)c(Cl)c1 (single isomer, unassigned) [Compound 210, 3-(3-Chloro-4-fluorophenyl)-1-(3-hydroxy-2,2-dimethylpropyl)-1-(1-(1-oxo-1,2-dihydroisoquinolin-4-yl)ethyl)urea]",0.1
9,"CC(c1cnc(N(C)C)c2ccccc12)N(C)C(=O)Nc1ccc(F)c(Cl)c1 (single isomer, unassigned) [Compound 234, 3-(3-Chloro-4-fluorophenyl)-1-(1-(1-(dimethylamino)isoquinolin-4-yl)ethyl)-1-methylurea]",0.65

# Same assay, conditions: HepDE19 assay, inhibition of formation of relaxed circular DNA (rcDNA), bDNA quantitation; read-out: DE-19bDNA EC50
row,Compound,EC50 [µM]
1,"CC(c1c[nH]c(=O)c2ccc(F)cc12)N(CC1COC(C)(C)OC1)C(=O)Nc1ccc(F)c(Cl)c1 (single isomer, unassigned) [Compound 282, 3-(3-Chloro-4-fluorophenyl)-1-((2,2-dimethyl-1,3-dioxan-5-yl)methyl)-1-(1-(6-fluoro-1-oxo-1,2-dihydroisoquinolin-4-yl)ethyl)urea]",4
2,"CC(c1c[nH]c(=O)c2cc(F)c(F)cc12)N(C)C(=O)Nc1cc(Cl)c(F)c(Cl)c1 (single isomer, unassigned) [Compound 439, 3-(3,5-Dichloro-4-fluorophenyl)-1-(1-(6,7-difluoro-1-oxo-1,2-dihydroisoquinolin-4-yl)ethyl)-1-methylurea]",0.12
3,"CC(c1c[nH]c(=O)c2ccccc12)N(Cc1ccncc1)C(=O)Nc1ccc(F)c(Cl)c1 (single isomer, unassigned) [Compound 309, 3-(3-Chloro-4-fluorophenyl)-1-(1-(1-oxo-1,2-dihydroisoquinolin-4-yl)ethyl)-1-(pyridin-4-ylmethyl) urea]",11
4,"CC(c1cn(C)c(=O)c2c(F)cccc12)N(C)C(=O)Nc1ccc(F)c(Cl)c1 (single isomer, unassigned) [Compound 358, 3-(3-Chloro-4-fluorophenyl)-1-(1-(8-fluoro-2-methyl-1-oxo-1,2-dihydroisoquinolin-4-yl)ethyl)-1-methylurea]",5.9
5,"CC(C)CN(C(=O)Nc1ccc(F)c(Cl)c1)C(C)c1cnc(-n2cncn2)c2ccccc12 (single isomer, unassigned) [Compound 344, 1-(1-(1-(1H-1,2,4-triazol-1-yl)isoquinolin-4-yl)ethyl)-3-(3-chloro-4-fluorophenyl)-1-isobutylurea]",2.3
6,"CC(c1c[nH]c(=O)c2c(F)cc(F)cc12)N(C)C(=O)Nc1ccc(F)cc1 (single isomer, unassigned) [Compound 371, 1-(1-(6,8-Difluoro-1-oxo-1,2-dihydroisoquinolin-4-yl)ethyl)-3-(4-fluorophenyl)-1-methylurea]",0.053
7,"CC(c1c[nH]c(=O)c2cc(F)c(F)cc12)N(CCCO)C(=O)Nc1ccc(F)cc1 (single isomer, unassigned) [Compound 291, 1-(1-(6,7-Difluoro-1-oxo-1,2-dihydroisoquinolin-4-yl)ethyl)-3-(4-fluorophenyl)-1-(3-hydroxypropyl) urea]",4.6

# Same assay, conditions: Hepatitis B virus, HepDE19, HepDE19 assay, inhibition of formation of rcDNA; read-out: DE-19bDNA EC50
row,Compound,EC50 [µM]
1,"CCN(Cc1cncc2ccccc12)C(=O)Nc1ccc(F)c(Cl)c1 [Compound 16, 3-(3-Chloro-4-fluorophenyl)-1-ethyl-1-(isoquinolin-4-ylmethyl)urea]",1.7
2,"CC(c1c[nH]c(=O)c2cc(F)ccc12)N(C)C(=O)Nc1ccc(F)c(Cl)c1 (racemic) [Compound 257, 3-(3-Chloro-4-fluorophenyl)-1-(1-(7-fluoro-1-oxo-1,2-dihydroisoquinolin-4-yl)ethyl)-1-methylurea]",0.033
3,"COc1ncc(C(CCO)NC(=O)Nc2ccc(F)c(Cl)c2)c2ccccc12 (racemic) [Compound 71, 1-(3-Chloro-4-fluorophenyl)-3-(3-hydroxy-1-(1-methoxyisoquinolin-4-yl)propyl)urea]",4.4
4,"CC(C)CN(C(=O)Nc1ccc(F)c(Cl)c1)C(C)c1c[nH]c(=O)c2cnccc12 (racemic) [Compound 154, 3-(3-Chloro-4-fluorophenyl)-1-isobutyl-1-(1-(1-oxo-1,2-dihydro-2,7-naphthyridin-4-yl)ethyl)urea]",0.02
5,"CC(C)CN(C(=O)Nc1ccc(F)c(Cl)c1)C(C)c1cn(CC(F)(F)F)c(=O)c2ccccc12 (racemic) [Compound 229, 3-(3-Chloro-4-fluorophenyl)-1-isobutyl-1-(1-(1-oxo-2-(2,2,2-trifluoroethyl)-1,2-dihydroisoquinolin-4-yl)ethyl)urea]",0.07
6,"CC(c1c[nH]c(=O)c2ccccc12)N(CC1COC(C)(C)OC1)C(=O)Nc1ccc(F)cc1 (single isomer, unassigned) [Compound 274, 3-(4-Fluorophenyl)-1-((2,2-dimethyl-1,3-dioxan-5-yl)methyl)-1-(1-(1-oxo-1,2-dihydroisoquinolin-4-yl)ethyl)urea]",1.8
7,"O=C(Nc1ccc(F)c(Cl)c1)N(Cc1c[nH]c(=O)c2ccccc12)C1CC1 [Compound 42, 3-(3-Chloro-4-fluorophenyl)-1-cyclopropyl-1-((1-oxo-1,2-dihydroisoquinolin-4-yl)methyl)urea]",0.81

# Same assay, conditions: Hepatitis B virus, HepDE19, read-out: DE-19bDNA EC50 (μM), HepDE19 assay, inhibition of formation of rcDNA
row,Compound,EC50 [µM]
1,"COCCN(Cc1c[nH]c(=O)c2ccccc12)C(=O)Nc1ccc(F)c(Cl)c1 [Compound 50, 3-(3-Chloro-4-fluorophenyl)-1-(2-methoxyethyl)-1-((1-oxo-1,2-dihydroisoquinolin-4-yl)methyl)urea]",0.47

# Same assay, conditions: Hepatitis B virus, HepDE19, read-out: DE-19bDNA EC50 (μM), HepDE19 assay, inhibition of formation of relaxed circular DNA (rcDNA), bDNA quantitation
row,Compound,EC50 [µM]
1,"CC(NC(=O)Nc1ccc(F)c(Cl)c1)c1c[nH]c(=O)c2cc(F)c(F)cc12 (stereo not drawn) [Compound 480, 1-(3-Chloro-4-fluorophenyl)-3-(1-(6,7-difluoro-1-oxo-1,2-dihydroisoquinolin-4-yl)ethyl)urea]",0.85

# Same assay, conditions: read-out: DE-19bDNA EC50; HepDE19 assay, inhibition of formation of relaxed circular DNA (rcDNA), bDNA quantitation
row,Compound,EC50 [µM]
1,"CC(c1c[nH]c(=O)c2cc(F)c(F)cc12)N(C)C(=O)Nc1cccc(F)c1 (single isomer, unassigned) [Compound 410, 1-(1-(6,7-Difluoro-1-oxo-1,2-dihydroisoquinolin-4-yl)ethyl)-3-(3-fluorophenyl)-1-methylurea]",2.8
2,"CN(C(=O)Nc1ccc(F)c(Cl)c1)C(CO)c1c[nH]c(=O)c2ccccc12 (single isomer, unassigned) [Compound 379, 3-(3-Chloro-4-fluorophenyl)-1-(2-hydroxy-1-(1-oxo-1,2-dihydroisoquinolin-4-yl)ethyl)-1-methylurea]",0.14
